Measured values published in patent publication US20230087609A1, “USE OF A SOLUBLE GUANYLATE CYCLASE (sGC) STIMULATOR OR OF A COMBINATION OF A sGC STIMULATOR AND AN sGC ACTIVATOR FOR CONDITIONS WHEREIN THE HEME GROUP OF sGC IS OXIDIZED OR WHEREIN sGC IS DEFICIENT IN HEME” (Universiteit Maastricht, priority 2020, published 2023).

Target: T1, purified human sGC treated with ODQ (oxidized heme) (Homo sapiens, UniProt Q02153)
T1 construct: purchased EnzoLifeScience, Lörrach, Germany
T1 sequence (Q02153 1-619): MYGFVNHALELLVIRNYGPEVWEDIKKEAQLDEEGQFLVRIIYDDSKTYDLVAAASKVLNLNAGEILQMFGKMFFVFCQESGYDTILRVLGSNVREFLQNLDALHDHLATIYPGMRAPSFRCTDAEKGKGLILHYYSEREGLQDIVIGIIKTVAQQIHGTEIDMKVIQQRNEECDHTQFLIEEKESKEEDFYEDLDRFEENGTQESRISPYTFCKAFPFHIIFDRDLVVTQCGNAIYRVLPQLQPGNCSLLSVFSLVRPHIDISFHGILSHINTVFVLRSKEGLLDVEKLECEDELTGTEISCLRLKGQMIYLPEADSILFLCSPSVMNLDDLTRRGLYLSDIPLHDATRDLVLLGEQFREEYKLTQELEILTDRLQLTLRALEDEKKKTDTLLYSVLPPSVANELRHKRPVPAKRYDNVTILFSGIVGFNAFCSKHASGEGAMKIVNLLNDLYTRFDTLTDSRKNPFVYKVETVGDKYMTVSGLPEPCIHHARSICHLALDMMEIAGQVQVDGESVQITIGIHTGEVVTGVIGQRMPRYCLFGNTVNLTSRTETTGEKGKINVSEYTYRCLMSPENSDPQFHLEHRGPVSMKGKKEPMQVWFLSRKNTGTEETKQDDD
T1 sequence (Q02108 1-690 partner): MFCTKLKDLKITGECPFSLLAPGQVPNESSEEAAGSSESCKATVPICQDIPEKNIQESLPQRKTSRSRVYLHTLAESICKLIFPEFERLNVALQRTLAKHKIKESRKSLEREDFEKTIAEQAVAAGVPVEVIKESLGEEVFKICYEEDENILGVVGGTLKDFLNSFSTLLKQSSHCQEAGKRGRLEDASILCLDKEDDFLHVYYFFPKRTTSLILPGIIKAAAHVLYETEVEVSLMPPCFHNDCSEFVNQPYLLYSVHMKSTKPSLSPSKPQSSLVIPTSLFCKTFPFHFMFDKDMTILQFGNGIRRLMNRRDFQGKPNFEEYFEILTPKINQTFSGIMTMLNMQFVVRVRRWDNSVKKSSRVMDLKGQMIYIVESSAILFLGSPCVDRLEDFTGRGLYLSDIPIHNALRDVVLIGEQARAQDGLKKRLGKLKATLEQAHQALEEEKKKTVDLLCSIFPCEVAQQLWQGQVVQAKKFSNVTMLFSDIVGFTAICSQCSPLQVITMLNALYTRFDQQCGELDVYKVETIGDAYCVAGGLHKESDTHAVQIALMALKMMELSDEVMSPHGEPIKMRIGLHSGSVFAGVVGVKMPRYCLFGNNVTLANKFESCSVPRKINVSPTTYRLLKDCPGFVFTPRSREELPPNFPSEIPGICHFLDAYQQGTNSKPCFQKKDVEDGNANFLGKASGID
Experiment: sGC activity of purified human sGC treated with ODQ
Format: biochemical
Conditions: 10 μM ODQ, 0.3 μM BAY 58-2667 ± 10 μM BAY 41-2272 (FIG. 7A); ODQ concentration series with 30 μM Bay 41-2272 (FIG. 7B)

- sGC activity of sGC with fully oxidized heme on addition of sGC stimulator: still activatable by potentiation
Structure (SMILES): Nc1nc(-c2nn(Cc3ccccc3F)c3ncccc23)ncc1C1CC1 [BAY 41-2272, 5-cyclopropyl-2-[1-(2-fluoro-benzyl)-1H-pyrazolo[3,4-b]pyridin-3-yl]-pyrimidin-4-ylamine]
